# Measurements reported in patent US20150017628A1, “CRYOPRESERVATION OF CELLS IN ABSENCE OF VITRIFICATION INDUCING AGENTS” (UNIVERSITY OF WARWICK, priority 2012, published 2015).
# Legend:
# [1] = Ice recrystallisation inhibition (IRI) modified splat assay; format: physicochemical; settings: at these concentrations (1-10 mg·mL^-1)
# Experimental: Determination of RI activity was achieved using a modified “splat” assay. A 10 μL droplet of the analyte solution in PBS was expelled at a fixed height of 2 m onto a glass coverslip placed upon a pre-cooled (CO2(s)) aluminium plate. This was immediately transferred onto the pre-cooled microscope stage (−6° C.) and left to anneal for 30 minutes. Photographs of the wafer were taken at both 0 and 30 minutes through crossed polarizers. A large number of the ice crystals (30+) were then measured to find the largest grain size dimension along any axis. The average largest value from 3 individual photographs was calculated to give the mean largest grain size (MLGS). Reported errors are the coefficient of variation (standard deviation/mean) from a minimum of 3 individual data sets. Values are reported as the MLGS relative to that obtained for PBS alone.
# A polynucleated wafer of ice crystals (each ice crystal is <30 μm) was made from phosphate buffered saline (PBS) solutions of the additive being investigated. Following annealing at −6° C. for 30 minutes, the wafers were imaged through crossed polarisers and the size of the crystals measured. In addition to PVA, two common biocompatible polymers were also assessed for IRI activity; dextran and poly(ethylene glycol) (PEG, FIG. 1C), as they are both commonly added to cryopreservative solutions.
# erythrocytes = test: Cryoprotectant haemocompatibility / cytotoxicity (haemolysis of erythrocytes); format: cell-based, ovine
# Experimental: A 40 μL aliquot of the thawed erythrocyte solution was added to 400 μL PBS and centrifuged (1000×g, 5 min, 4° C.) to remove intact cells. 50 μL of the supernatant was added to 150 μL PBS in a 96-well plate and an absorbance measurement at 450 nm recorded to assess the extent of haemoglobin leakage. 100% haemolysis samples were prepared by osmotic shock through addition of 500 μL H2O to 500 μL erythrocytes suspension and the sample was vortexed vigorously. Control (0% haemolysis) samples were prepared by the addition of 500 μL PBS to 500 μL erythrocytes and left at room temperature (25° C.) for 60 minutes. All measurements were repeated a minimum of 5 times and the reported errors are the coefficient of variation (standard deviation/mean).
# Erythrocytes were prepared as described above. A 500 μL aliquot of erythrocytes was added to 500 μL of the polymer or DMSO in PBS and mixed by inversion. The samples were incubated at 25° C. for 120 minutes before analysis. Haemolysis was measured in the same method as used for cryopreservation studies (above). All measurements were repeated in triplicate.
# Fresh ovine (defibrinated) erythrocytes were prepared in an identical manner as aforementioned. Samples were prepared in triplicate. A 500 μL aliquot of erythrocytes was added to 500 μL 2× final concentration cryoprotectant in PBS and mixed by inversion. The samples were incubated at room temperature for 120 minutes before analysis. […] This is in contrast to some examples that defined toxicity only at levels exceeding 10% haemolysis. Concentrations higher than this were not deemed necessary for assessment.
Compound,IRI activity of common vitrification solvents [1],concentration above which significant haemolysis was observed (erythrocytes; 120 minutes at 25° C.),"concentration above which significant haemolysis was observed (erythrocytes; 120 minutes at room temperature, significant haemolysis >5%)",haemolytic property of common cryoprotectant (erythrocytes; general statement)
OCC(O)CO [glycerol],little or no IRI activity,,,
"C[S+](C)[O-] [DMSO, dimethylsulfoxide]",little or no IRI activity,Above 1.5 w/v %,Above 1.5 wt %,strongly haemolytic
